Consider one compound from patent publication US7264795B2, “Sunscreen composition” (Merck Patent Gesellschaft, priority 2001, dated 2007).

The nature of data set [1]: Comparative release through an inert lipophilic membrane (Franz diffusion cell). In kind it is in vitro ADME. The note with it: after 6 hours, finite dose 5 mg/cm^2 (572 μg OMC/cell). An excerpt:
The goal of this study is to determine and compare the release of OMC from two different formulations through an inert lipophilic membrane which serves as a model (Jiang R, Benson H A E, Cross S E, Roberts M S. In vitro human epidermal and polyethylene membrane penetration and retention of sunscreen benzophenone-3 from a range of solvents. Pharm. Res., 15: 1863-1886 (1998)) for in vitro human skin applications. (Jiang R, Robert M S, Prankerd R J, Benson H A E. Percutaneous absorption of sunscreen agents from liquid paraffin: self-association of octyl salicylate and effects on skin flux. J. Pharm. Sci., 86: 791-796 (1997); Shah et al: In vitro release from corticosteorid ointments. J. Pham. Sci., 84(9): 1139-1140 (1995);).
Two formulations are prepared, one with free, the other with encapsulated OMC. Both contained the same amount of OMC (see Table 3).
Tuffryn® membranes (200 nm in pore size) are soaked for 30 minutes in isopropyl myristate and blotted dry with tissue paper prior to use. […]
Analysis is by HPLC, OMC concentrations are calculated from the ratio peak area of the OMC to an internal standard and calibration curve.

Data set [2] is described as follows: Epidermal uptake of UV filters by human epidermis (Franz diffusion cell). In kind it is in vitro ADME. The procedure:
The goal of this study is to determine and compare both the release of OMC from two different formulations through human epidermal membranes and the epidermal uptake of OMC.
Human female abdominal skin is used to heat-separate the epidermis from the dermis. The epidermal membranes thus obtained are mounted onto a Franz diffusion cell. The receptor cell contains PBS and 4% (w/v) bovine serum albumin, resulting in a pH of 7.4. The temperature is set to 35° C. Each of the two formulations is applied to 3 cells, non-occluded, with a finite dose concentration of 5 mg/cm^2 (572 μg OMC/cell). […] The duration of examination is 6 hours, 200 μl of the receptor phase is removed at specific points of time and analyzed by HPLC. To analyze the epidermal uptake, the remaining formulation is wiped from the surface of the epidermis with alcohol-soaked tissue and the skin is stripped once with adhesive tape, which is then discarded. A circular punch is used to remove a constant area of epidermis exposed to the formulations. After extraction, OMC concentrations are analyzed by HPLC.

Data set [3] can be described thus: Differential stripping of the stratum corneum (tape stripping with UV/VIS spectroscopy). The class given is in vitro ADME, porcine. The text has this:
The goal of this study was to determine and compare the distribution of OMC in the stratum corneum of two different formulations as applied to porcine skin, which serves as a model for in vivo human skin applications. The method used has been established (Weigmann H-J, Lademann J, Meffert H, Schaefer H, Sterry W: Determination of the horny layer profile by tape stripping in combination with optical spectroscopy in the visible range as a prerequisite to quantify percutaneous absorption. Skin Pharmacol Appl Skin Physiol, 12:34-45 (1999)) and is described below. This method is based on conventional stripping procedures combined with UV/VIS spectroscopy to determine both the substance, to be analyzed, and, in parallel, the weight of the comeocytes. This since it is possible to obtain the complete stratum corneum with this stripping procedure, the strips thus can be shown as a horny layer profile.
Porcine ear skin is used due to its availability and well-known similarity to human skin. […] Two formulations are applied to an area of 20 cm^2 with a concentration of 2 mg/cm^2 (200 μg OMC/cm^2) and exposed for one hour. […] Afterwards, topical application and stripping was carried out using a standard procedure (The emulsion is applied with a syringe and evenly distributed with a gloved finger. After pressure application, all strips were removed from the marked area). The stripping is repeated as long as the spectral photometer has a transmission of 99.8% compared to the original tape strip as reference.
After evaluation of the amount of stratum corneum photometrically at 900 nm, the strips are extracted with methanol, centrifuged and decanted. Amounts of OMC concentrations are calculated from the ratio peak area of the OMC to an internal OMC calibration curve. The detection limit for OMC is found to be 1 μg/ml±5%. The experiments are carried out in duplicate.
Non-particulate substances lying in the furrows are distributed evenly due to the applied pressure—this releases the substances from the furrows, while particulate substances often remain. […]

Take `CCCCC(CC)COC(=O)C=Cc1ccc(OC)cc1` (centres unmarked) [Free OMC, octyl methoxycinnamate]: the “OMC reaching the receptor cell as share of the applied amount” value in data set [1] amounted to 12.5%. Also, the “OMC reaching the receptor cell” value in data set [1] (8.8% OMC, n=3) worked out at 72 µg. Moreover, the “UV filter penetrating the epidermis into the receptor phase” value in data set [2] (6 hours, finite dose 5 mg/cm^2 (572 μg OMC/cell), 8.8% OMC) is given as “no significant amount of UV filter penetrating the epidermis”. Besides, the “Epidermal uptake of OMC per mg of epidermal tissue” value in data set [2] (after 6 hours of exposure, finite dose 5 mg/cm^2, 8.8% OMC) came to 3.3 μg/mg tissue. The “Epidermal absorption compared to Eusolex UV-Pearls” value in data set [2] (heat-separated human epidermis, 6 hours) amounted to 3 fold. Moreover, the “Share of the stratum corneum (SC) down to which OMC is found” value in data set [3] (10% OMC formulation, 2 mg/cm^2, exposed one hour, 100% SC = 20 μm) is reported as 75 % of the SC. The “Maximum depth in the SC where OMC can be detected” value in data set [3] (10% OMC formulation, 2 mg/cm^2, exposed one hour, horny layer about 20 μm) is not above 15 μm. The “OMC amount in the deepest strip” value in data set [3] (strip at 15 μm depth (75% of the SC)) is 1 μg/cm^2.
